Results as given in patent publication US11707500B2, “Growth promoting peptides, and uses thereof” (NURITAS LIMITED, priority 2015, dated 2023).

Legend:
Type in all cases: cell-based
[1] = tested on: Human Dermal Fibroblasts (HDF); test: BrdU cell proliferation assay; conditions: HDF incubated 24 h with 5, 0.5 or 0.05 μg/ml synthetic peptide; percentage of untreated control
Procedure: BrDu is incorporated into newly synthesised DNA strands of actively proliferating cells. Following partial denaturation of double stranded DNA, Brdu is detected immunochemically allowing the assessment of the population of cells which are synthesizing DNA.
Human Dermal Fibroblasts (HDF—Sigma 10605a) were seeded in a 96 well plate at 10,000 cells per well in DMEM containing 10% fetal calf serum (FCS), 1% Pen/strep, 1% L-glutamine and allowed to adhere for 24 h.
Following the initial 24 h incubation the cells were incubated with 5 μg/ml, 0.5 μg/ml or 0.05 μg/ml synthetic peptide for 24 h respectively.
After 18 h incubation with synthetic peptides 20 μl BrDu reagent was added to each well.
At 24 h incubation the cell were fixed and the amount of […] was measured using the BrdU Cell Proliferation Assay, all steps were carried out according to the manufacturer's instructions.
Results were calculated as a percentage of the untreated control. An increase in optical density reading indicates greatER incorporation of BrDu and increase cell proliferation.

[2] = tested on: keratinocytes of the basal layer of the epidermis, human skin tissue explants; test: Ki67 immunohistochemistry (mitotic index) in skin explants; conditions: for % of Ki67 positive cells in the basal layer of the epidermis: peptides 20 μM (Peptide 8 10 μM), compositions 500 μg/mL, EGF 10 ng/mL; for number of mitotic cells compared to EGF at day 1: day 1, compared to EGF
Procedure: (§1) Skin explants were prepared from abdominal plastic surgery. Some explants were delipidated with alcohol to obtain a dehydrated skin.
(§2) These explants were maintained in maintenance medium supplied by the provider Bioprédic International for 5 days. Test items are applied twice per day with 5 μL per explant.
(§3) After receipt in the laboratory, each skin explant in the maintenance medium is delipidated with 5 μL alcohol during 3 hours.
(§4) After 3 hours, all skin explants are treated two per day with test items, and they are incubated at 37° C.+/−2° C., 5% CO2 for 1 day or 5 days. Integrity of the system is realized at day 1 and day 5 with a viability control with MTT.
Epithelial proliferation was analyzed by immunohistochemistry using anti-Ki67 antibody.
Counting the number of labeled cells (keratinocytes of the basal layer of the epidermis) is performed and provides the total number of basal cells to calculate the % of labeled cells.
The results of the immunohistochemical analysis of Ki67 are reported in Table 4 and expressed as % of labelled at the basal layer of the epidermis. […] Immunohistochemical analysis of mitotic activity is shown in annex 4 with a reminder of the average for each analysed conditions.

[3] = tested on: elastic fibers of the dermis, human skin tissue explants; test: Morphometric quantification of elastic fibers (elastin expression) in skin explants; conditions: for Morphometric quantification of elastic fibers in the middle dermis (%) / Morphometric quantification of elastic fibers in the superficial dermis (%): test items applied twice per day, 5 μL per explant, peptides 20 μM (Peptide 8 10 μM), compositions 500 μg/mL, EGF 10 ng/mL
Procedure: as §1, §2
For each time of analysis (D1 and D5), histologies on delipidated explants, treated explants with test items, the DMSO 0.3% control and water control, are performed.
as §3, §4
Histology is realized by the laboratory Gredeco and the immunostaining to elastin and Ki67 are realized by the same laboratory. Immunostaining to filaggrin is realized by the laboratory Intertek.
The immunohistochemical staining intensity in the elastic fibers is evaluated using a semi-quantitative histological score.
The percentage area taken up by elastic fibers in the dermis was calculated in the dermis and the average superficial dermis.

365 (GAFTPLQYK) [compound 365]
INCREASE IN PROLIFERATION [1]: 58%

403 (LGAPDVGHPM) [compound 403]
INCREASE IN PROLIFERATION [1]: 51%

410 (YRELGAPDVGHPMSE) [compound 410]
INCREASE IN PROLIFERATION [1]: 73%

452 (HPRPPKPDAPR) [compound 452]
INCREASE IN PROLIFERATION [1]: 76%

453 (LQQAPPPPQR) [compound 453]
INCREASE IN PROLIFERATION [1]: 25%

454 (VGWGEQPWSPY) [compound 454]
INCREASE IN PROLIFERATION [1]: 38%

455 (FHMPP) [compound 455]
INCREASE IN PROLIFERATION [1]: 47%

457 (FWMA) [compound 457]
INCREASE IN PROLIFERATION [1]: 114%

460 (HMPSS) [compound 460]
INCREASE IN PROLIFERATION [1]: 38%

461 (HRFR) [compound 461]
INCREASE IN PROLIFERATION [1]: 85%

462 (HRRS) [compound 462]
INCREASE IN PROLIFERATION [1]: 15%

463 (HSPR) [compound 463]
INCREASE IN PROLIFERATION [1]: 100%

464 (HWFA) [compound 464]
INCREASE IN PROLIFERATION [1]: 18%

465 (MFRR) [compound 465]
INCREASE IN PROLIFERATION [1]: 96%

467 (MPPS) [compound 467]
INCREASE IN PROLIFERATION [1]: 90%

468 (MPRR) [compound 468]
INCREASE IN PROLIFERATION [1]: 82%

470 (PHMP) [compound 470]
INCREASE IN PROLIFERATION [1]: 119%

471 (PHMPS) [compound 471]
INCREASE IN PROLIFERATION [1]: 38%

472 (PRRF) [compound 472]
INCREASE IN PROLIFERATION [1]: 77%

473 (WMKA) [compound 473]
INCREASE IN PROLIFERATION [1]: 41%

474 (DSINALEPDHR) [compound 474]
INCREASE IN PROLIFERATION [1]: 121%

477 (IFEDAITIPGR) [compound 477]
INCREASE IN PROLIFERATION [1]: 81%

478 (LDALEPDNRIESE) [compound 478]
INCREASE IN PROLIFERATION [1]: 76%

479 (KTLDYWPSLR) [compound 479]
INCREASE IN PROLIFERATION [1]: 106%

480 (RHGEWGPSY) [compound 480]
INCREASE IN PROLIFERATION [1]: 102%

482 (ILVDGSHDIER) [compound 482]
INCREASE IN PROLIFERATION [1]: 113%

495 (HPMS) [compound 495]
INCREASE IN PROLIFERATION [1]: 68%

497 (MPMP) [compound 497]
INCREASE IN PROLIFERATION [1]: 58%

499 (PNSM) [compound 499]
INCREASE IN PROLIFERATION [1]: 113%

500 (WDPA) [compound 500]
INCREASE IN PROLIFERATION [1]: 6%

501 (LRGFSK) [compound 501]
INCREASE IN PROLIFERATION [1]: 43%

502 (RSQNIF) [compound 502]
INCREASE IN PROLIFERATION [1]: 68%

503 (YLRGFS) [compound 503]
INCREASE IN PROLIFERATION [1]: 125%

504 (GALMLPHYN) [compound 504]
INCREASE IN PROLIFERATION [1]: 119%

505 (GALMLPHYNSR) [compound 505]
INCREASE IN PROLIFERATION [1]: 118%

HGPVEMPYTLLYPSSK [0723.01]
% of Ki67 positive cells in the basal layer of the epidermis ([2]; D 1): 18.57%
% of Ki67 positive cells in the basal layer of the epidermis ([2]; D 5): 3.92%
Morphometric quantification of elastic fibers in the middle dermis (%) ([3]; D 1): 7.59%
Morphometric quantification of elastic fibers in the superficial dermis (%) ([3]; D 1): 4.45%
elastic fibers in the middle dermis compared to the water control at D5 [3]: an increase
Morphometric quantification of elastic fibers in the middle dermis (%) ([3]; D 5): 10.17%
Morphometric quantification of elastic fibers in the superficial dermis (%) ([3]; D 5): 10.21%
elastic fibers in the superficial dermis compared to control water [3]: increase by twice

LDALEPDNR [0723.03]
% of Ki67 positive cells in the basal layer of the epidermis ([2]; D 1): 22.01%
% of Ki67 positive cells in the basal layer of the epidermis ([2]; D 5): 10.04%
Morphometric quantification of elastic fibers in the middle dermis (%) ([3]; D 1): 4.9%
Morphometric quantification of elastic fibers in the superficial dermis (%) ([3]; D 1): 3%
elastic fibers in the middle dermis compared to the water control at D5 [3]: an increase
Morphometric quantification of elastic fibers in the middle dermis (%) ([3]; D 5): 9%
Morphometric quantification of elastic fibers in the superficial dermis (%) ([3]; D 5): 11.68%
elastic fibers in the superficial dermis compared to control water [3]: increase by twice

QQYGIAASPFLQSAA [0723.07]
% of Ki67 positive cells in the basal layer of the epidermis ([2]; D 1): 22.22%
% of Ki67 positive cells in the basal layer of the epidermis ([2]; D 5): 5.26%
Morphometric quantification of elastic fibers in the middle dermis (%) ([3]; D 1): 6.46%
Morphometric quantification of elastic fibers in the superficial dermis (%) ([3]; D 1): 4%
Morphometric quantification of elastic fibers in the middle dermis (%) ([3]; D 5): 5.33%
Morphometric quantification of elastic fibers in the superficial dermis (%) ([3]; D 5): 5.15%

RLQSQNDQRGEIIHVK [0723.02]
% of Ki67 positive cells in the basal layer of the epidermis ([2]; D 1): 19.61%
% of Ki67 positive cells in the basal layer of the epidermis ([2]; D 5): 6.73%
Morphometric quantification of elastic fibers in the superficial dermis (%) ([3]; D 1): 6.09%
elastic fibers in the middle dermis compared to the water control at D5 [3]: an increase
Morphometric quantification of elastic fibers in the middle dermis (%) ([3]; D 5): 9.08%
Morphometric quantification of elastic fibers in the superficial dermis (%) ([3]; D 5): 7.59%
elastic fibers in the middle dermis at day 1 compared to control water ([3]; day 1, compared to control water): increase doubled

RPYYSNAPQEIF [0723.04]
% of Ki67 positive cells in the basal layer of the epidermis ([2]; D 1): 14.97%
% of Ki67 positive cells in the basal layer of the epidermis ([2]; D 5): 11.36%
Morphometric quantification of elastic fibers in the middle dermis (%) ([3]; D 1): 5.22%
Morphometric quantification of elastic fibers in the superficial dermis (%) ([3]; D 1): 3.28%
Morphometric quantification of elastic fibers in the middle dermis (%) ([3]; D 5): 9%
Morphometric quantification of elastic fibers in the superficial dermis (%) ([3]; D 5): 8.94%

SKPHTIFLPQHTDADYILVVLSGK [0723.08]
% of Ki67 positive cells in the basal layer of the epidermis ([2]; D 1): 27.83%
% of Ki67 positive cells in the basal layer of the epidermis ([2]; D 5): 5.72%
number of mitotic cells compared to EGF at day 1 [2]: an increase
Morphometric quantification of elastic fibers in the middle dermis (%) ([3]; D 1): 3.52%
Morphometric quantification of elastic fibers in the superficial dermis (%) ([3]; D 1): 2.7%
Morphometric quantification of elastic fibers in the middle dermis (%) ([3]; D 5): 7.27%
Morphometric quantification of elastic fibers in the superficial dermis (%) ([3]; D 5): 5.32%

TVFDGVLRPGQL [0723.06]
% of Ki67 positive cells in the basal layer of the epidermis ([2]; D 1): 31.97%
% of Ki67 positive cells in the basal layer of the epidermis ([2]; D 5): 5.04%
number of mitotic cells compared to EGF at day 1 [2]: an increase
Morphometric quantification of elastic fibers in the middle dermis (%) ([3]; D 1): 4.54%
Morphometric quantification of elastic fibers in the superficial dermis (%) ([3]; D 1): 3.8%
Morphometric quantification of elastic fibers in the middle dermis (%) ([3]; D 5): 8.67%
Morphometric quantification of elastic fibers in the superficial dermis (%) ([3]; D 5): 4.03%

VLLEQQEQEPQH [0723.05]
% of Ki67 positive cells in the basal layer of the epidermis ([2]; D 1): 9.48%
% of Ki67 positive cells in the basal layer of the epidermis ([2]; D 5): 3.08%
Morphometric quantification of elastic fibers in the middle dermis (%) ([3]; D 1): 8.8%
Morphometric quantification of elastic fibers in the superficial dermis (%) ([3]; D 1): 6.34%
Morphometric quantification of elastic fibers in the middle dermis (%) ([3]; D 5): 6.61%
Morphometric quantification of elastic fibers in the superficial dermis (%) ([3]; D 5): 6.26%
